In ChEMBL document CHEMBL1128526, “Conformational effects on retinoid receptor selectivity. 2. Effects of retinoid bridging group on retinoid X receptor activity and selectivity” (J Med Chem, 1995):
“And” between values parts separate entries of the source, which are not always exact repeats. Identical values can stand only once.

Key:
[1] = target: T1, Retinoic acid receptor RXR-alpha (Homo sapiens, UniProt P19793); assay: Effective concentration against Retinoic acid receptor RXR-alpha
T1 sequence (P19793 whole entry): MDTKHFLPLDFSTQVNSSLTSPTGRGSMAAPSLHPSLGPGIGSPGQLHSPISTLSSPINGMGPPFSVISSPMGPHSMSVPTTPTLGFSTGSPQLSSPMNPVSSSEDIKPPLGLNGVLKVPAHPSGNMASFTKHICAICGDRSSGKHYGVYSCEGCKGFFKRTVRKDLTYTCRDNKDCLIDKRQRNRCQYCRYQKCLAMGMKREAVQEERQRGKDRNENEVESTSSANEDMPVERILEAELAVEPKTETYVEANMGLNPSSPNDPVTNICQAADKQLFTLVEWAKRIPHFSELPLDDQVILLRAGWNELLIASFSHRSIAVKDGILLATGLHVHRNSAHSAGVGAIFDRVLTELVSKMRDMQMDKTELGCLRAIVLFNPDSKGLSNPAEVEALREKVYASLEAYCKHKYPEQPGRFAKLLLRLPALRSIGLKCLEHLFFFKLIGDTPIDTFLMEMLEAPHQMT

[2] = target: T2, Retinoic acid receptor RXR-gamma (Homo sapiens, UniProt P48443); assay: Effective concentrations against Retinoic acid receptor RXR-gamma
T2 sequence (P48443 whole entry): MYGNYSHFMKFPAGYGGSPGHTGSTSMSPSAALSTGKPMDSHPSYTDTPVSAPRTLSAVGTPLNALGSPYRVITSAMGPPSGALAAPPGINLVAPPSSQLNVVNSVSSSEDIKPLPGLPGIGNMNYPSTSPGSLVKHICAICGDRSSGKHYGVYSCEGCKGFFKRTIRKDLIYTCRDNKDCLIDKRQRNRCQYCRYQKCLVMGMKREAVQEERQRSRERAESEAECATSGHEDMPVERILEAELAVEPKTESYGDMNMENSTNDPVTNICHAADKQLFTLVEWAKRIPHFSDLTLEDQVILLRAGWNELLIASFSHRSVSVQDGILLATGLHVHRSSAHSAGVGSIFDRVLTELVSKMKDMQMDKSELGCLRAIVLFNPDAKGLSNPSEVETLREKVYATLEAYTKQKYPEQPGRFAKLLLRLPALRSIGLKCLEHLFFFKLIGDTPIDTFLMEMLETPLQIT

[3] = target: T3, Retinoic acid receptor RXR-beta (Homo sapiens, UniProt P28702); assay: Effective concentrations against Retinoid X receptor RXR beta
T3 sequence (P28702 whole entry): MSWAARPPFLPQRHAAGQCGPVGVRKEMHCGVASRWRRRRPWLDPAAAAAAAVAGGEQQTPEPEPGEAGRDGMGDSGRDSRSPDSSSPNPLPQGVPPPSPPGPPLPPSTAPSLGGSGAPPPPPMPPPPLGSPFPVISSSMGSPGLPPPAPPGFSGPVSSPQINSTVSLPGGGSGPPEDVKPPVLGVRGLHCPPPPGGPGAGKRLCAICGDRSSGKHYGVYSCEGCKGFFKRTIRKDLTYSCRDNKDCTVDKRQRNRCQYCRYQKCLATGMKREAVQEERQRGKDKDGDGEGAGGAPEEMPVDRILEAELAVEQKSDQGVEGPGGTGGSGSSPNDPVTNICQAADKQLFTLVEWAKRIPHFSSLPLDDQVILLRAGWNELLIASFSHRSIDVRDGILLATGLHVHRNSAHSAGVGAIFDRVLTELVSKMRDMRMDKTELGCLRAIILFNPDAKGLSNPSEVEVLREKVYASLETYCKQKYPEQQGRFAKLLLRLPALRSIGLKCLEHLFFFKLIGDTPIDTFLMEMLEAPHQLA

[4] = target: T3, Retinoic acid receptor RXR-beta; assay: Effective concentrations against Retinoic acid receptor RXR-beta

Row | SMILES | EC50 [1] | EC50 [2] | EC50 [3] | EC50 [4]
1 | CC(/C=C/C1(c2cc3c(cc2C)C(C)(C)CCC3(C)C)OCCO1)=C\C(=O)O | 21 nM | 2300 nM | 47 nM | 
2 | C=C(c1ccc(C(=O)O)s1)c1cc2c(cc1C)C(C)(C)CCC2(C)C | 330 nM | 520 nM |  | 33 nM
3 | CC1(C)CCC(C)(C)c2cc(C3(c4ccc(C(=O)O)cc4)OCCO3)ccc21 | 34 nM |  |  | 
4 | CC1(C)CCC(C)(C)c2cc(C3(c4ccc(C(=O)O)cc4)SCCCS3)ccc21 | 630 nM and 540 nM |  |  | 
5 | CC1(C)CCC(C)(C)c2cc(C3(c4ccc(C(=O)O)cc4)OCCS3)ccc21 (configuration not stated) | 74 nM |  |  | 
6 | CC1(C)CCC(C)(C)c2cc(Cc3ccc(C(=O)O)cc3)ccc21 | 2500 nM | 2000 nM |  | 2700 nM
7 | C/C=C(/c1ccc(C(=O)O)cc1)c1ccc2c(c1)C(C)(C)CCC2(C)C | 55 nM and 470 nM | 370 nM |  | 160 nM
8 | CC(c1ccc(C(=O)O)cc1)c1ccc2c(c1)C(C)(C)CCC2(C)C (configuration not stated) | 300 nM |  |  | 
9 | CC1(C)CCC(C)(C)c2cc(Oc3ccc(C(=O)O)cc3)ccc21 | 2500 nM | 530 nM |  | 1900 nM
10 | CC1(C)CCC(C)(C)c2cc(C3(c4ccc(C(=O)O)cc4)CC3)ccc21 | 55 nM |  |  | 

Results, then the compound that gave them:

Row | EC50 [1] | EC50 [2] | EC50 [3] | EC50 [4] | SMILES
11 | 750 nM and 1200 nM |  |  |  | CC1(C)CCC(C)(C)c2cc(C3(c4ccc(C(=O)O)cc4)OCCCO3)ccc21
12 | 3100 nM |  |  |  | CC1(C)CCC(C)(C)c2cc(C(C)(C)c3ccc(C(=O)O)cc3)ccc21
13 | 2200 nM | 300 nM |  | 1000 nM | Cc1cc2c(cc1C(=O)c1ccc(C(=O)O)s1)C(C)(C)CCC2(C)C
14 | 200 nM |  |  |  | CC(C)=C(/C=C/C(C)=C/C(=O)O)c1cc2c(cc1C)C(C)(C)CCC2(C)C
15 | 2900 nM |  |  |  | CC1(C)CCC(C)(C)c2cc(C(O)c3ccc(C(=O)O)cc3)ccc21 (configuration not stated)
16 | 86 nM |  |  |  | CC(C)=C(c1ccc(C(=O)O)cc1)c1ccc2c(c1)C(C)(C)CCC2(C)C
17 | 170 nM |  |  |  | CC1(C)CCC(C)(C)c2cc(C3(c4ccc(C(=O)O)cc4)SCCS3)ccc21
18 | 2500 nM |  |  |  | C/C=C(\c1ccc(C(=O)O)cc1)c1ccc2c(c1)C(C)(C)CCC2(C)C
19 | 380 nM |  |  |  | CC(C)=C(/C=C/C(C)=C/C(=O)O)c1ccc2c(c1)C(C)(C)CCC2(C)C
20 | 270 nM |  |  |  | C=C(c1ccc(C(=O)O)cc1)c1ccc2c(c1)C(C)(C)CCC2(C)C
